Measured values reported in patent publication US12421279B2, “Cyclic peptide antiviral agents and methods using same” (priority 2016, dated 2025).
Values joined by “and” are separate entries in the source; they are usually repeats but may differ in a detail not shown here. Equal entries are not always repeated. Where two headings read alike, the source gives them in different places. *1 amine or outer side, *2 acyl side, *3 side chain or, on linkers, in order; H or OH if unused. Where a SMILES comes first, the peptide text is derived from it. Bridges are numbered along the chain shown (N, C = ends). [ ]: non-standard residue; d: D form. X15 = CC(C)(C)c1ccc(-c2cn([C@H]3C[C@@H](C(=O)[*:2])N([*:1])C3)nn2)cc1; X18 = O=C([C@@H]1C[C@H](n2cc(-c3ccc(-c4ccccc4)cc3)nn2)CN1[*:1])[*:2]; X1 = O=C([C@@H]1C[C@H](n2cc(-c3ccc(-c4cccs4)cc3)nn2)CN1[*:1])[*:2]; X16 = CC(C)c1ccc(-c2cn([C@H]3C[C@@H](C(=O)[*:2])N([*:1])C3)nn2)cc1; X11 = Cc1ccc(Cc2cn([C@H]3C[C@@H](C(=O)[*:2])N([*:1])C3)nn2)c(C)c1; X19 = Cc1cc(C)cc(Cc2cn([C@H]3C[C@@H](C(=O)[*:2])N([*:1])C3)nn2)c1; X4 = O=C([C@@H]1C[C@H](n2cc(C3C4CC5CC(C4)CC3C5)nn2)CN1[*:1])[*:2]; X12 = O=C([C@@H]1C[C@H](n2cc(Cc3ccc(Cl)c(F)c3)nn2)CN1[*:1])[*:2]; X13 = O=C([C@@H]1C[C@H](n2cc(-c3cc4ccccc4cn3)nn2)CN1[*:1])[*:2]; X20 = Cc1ccc(Cc2cn([C@H]3C[C@@H](C(=O)[*:2])N([*:1])C3)nn2)cc1C; X10 = Cc1ccc(Cc2cn([C@H]3C[C@@H](C(=O)[*:2])N([*:1])C3)nn2)cc1; X9 = CCc1ccc(-c2cn([C@H]3C[C@@H](C(=O)[*:2])N([*:1])C3)nn2)cc1; X7 = Cc1cccc(Cc2cn([C@H]3C[C@@H](C(=O)[*:2])N([*:1])C3)nn2)c1; X8 = O=C([C@@H]1C[C@H](n2cc(Cc3ccc(Cl)cc3)nn2)CN1[*:1])[*:2]; X3 = Cc1ccccc1Cc1cn([C@H]2C[C@@H](C(=O)[*:2])N([*:1])C2)nn1; X5 = O=C([C@@H]1C[C@H](n2cc(Cc3ccc(I)cc3)nn2)CN1[*:1])[*:2]; X14 = O=C([C@@H]1C[C@H](n2cc(Cc3ccccc3)nn2)CN1[*:1])[*:2]; Suc = O=C(CCC(=O)[*:2])[*:1]

Tested on: HIV-1Bal.01
[1] = read-out: HIV-1Bal.01 infection inhibition IC50, HIV-1Bal.01 pseudovirus, HOS.T4.R5 cells
[2] = read-out: HIV-1 IC50, HIV-1Bal.01 infection inhibition, Table 1

`CC[C@H](C)[C@@H]1NC(=O)[C@H](CC(N)=O)NC(=O)[C@@H](N)CC(=O)NCCCC[C@@H](C(N)=O)NC(=O)[C@H](Cc2c[nH]c3ccccc23)NC(=O)[C@@H]2C[C@H](n3cc(Cc4ccc(C)cc4)nn3)CN2C1=O` [cPT 24] (H-DNI[X10]WK-NH2; lactam 1-6 (inferred); N-terminus and C-terminus assumed) showed an IC50 [1] of about 180 nM and an IC50 [2] of 180 ± 9 nM.

For `CC[C@H](C)[C@@H]1NC(=O)[C@H](CC(N)=O)NC(=O)[C@@H](N)CC(=O)NCCCC[C@@H](C(N)=O)NC(=O)[C@H](Cc2c[nH]c3ccccc23)NC(=O)[C@@H]2C[C@H](n3cc(Cc4ccccc4C)nn3)CN2C1=O` [cPT 25] (H-DNI[X3]WK-NH2; lactam 1-6 (inferred); N-terminus and C-terminus assumed), the IC50 [1] was about 5100 nM and the IC50 [2] was 5100 ± 220 nM.

Work on `CC[C@H](C)[C@@H]1NC(=O)[C@H](CC(N)=O)NC(=O)[C@@H](N)CC(=O)NCCCC[C@@H](C(N)=O)NC(=O)[C@H](Cc2c[nH]c3ccccc23)NC(=O)[C@@H]2C[C@H](n3cc(Cc4cccc(C)c4)nn3)CN2C1=O` [cPT 26] (H-DNI[X7]WK-NH2; lactam 1-6 (inferred); N-terminus and C-terminus assumed) yielded an IC50 [1] of about 220 nM and an IC50 [2] of 220 ± 42 nM.

`CC[C@H](C)[C@@H]1NC(=O)[C@H](CC(N)=O)NC(=O)[C@@H](N)CC(=O)NCCCC[C@@H](C(N)=O)NC(=O)[C@H](Cc2c[nH]c3ccccc23)NC(=O)[C@@H]2C[C@H](n3cc(Cc4ccc(C)cc4C)nn3)CN2C1=O` [cPT 27] (H-DNI[X11]WK-NH2; lactam 1-6 (inferred); N-terminus and C-terminus assumed) showed an IC50 [1] of about 302 nM and an IC50 [2] of 302 ± 50 nM.

For `CC[C@H](C)[C@@H]1NC(=O)[C@H](CC(N)=O)NC(=O)[C@@H](N)CC(=O)NCCCC[C@@H](C(N)=O)NC(=O)[C@H](Cc2c[nH]c3ccccc23)NC(=O)[C@@H]2C[C@H](n3cc(Cc4cc(C)cc(C)c4)nn3)CN2C1=O` [cPT 28] (H-DNI[X19]WK-NH2; lactam 1-6 (inferred); N-terminus and C-terminus assumed), the IC50 [1] was 2000 nM.

With `CC[C@H](C)[C@@H]1NC(=O)[C@H](CC(N)=O)NC(=O)[C@@H](N)CC(=O)NCCCC[C@@H](C(N)=O)NC(=O)[C@H](Cc2c[nH]c3ccccc23)NC(=O)[C@@H]2C[C@H](n3cc(Cc4ccc(C)c(C)c4)nn3)CN2C1=O` [cPT 29] (H-DNI[X20]WK-NH2; lactam 1-6 (inferred); N-terminus and C-terminus assumed) the IC50 [1] was 8000 nM.

`CC[C@H](C)[C@@H]1NC(=O)[C@H](CC(N)=O)NC(=O)[C@@H](N)CC(=O)NCCCC[C@@H](C(N)=O)NC(=O)[C@H](Cc2c[nH]c3ccccc23)NC(=O)[C@@H]2C[C@H](n3cc(Cc4ccc(Cl)c(F)c4)nn3)CN2C1=O` [cPT 32] (H-DNI[X12]WK-NH2; lactam 1-6) was tested, and the IC50 [1] was about 7300 nM and the IC50 [2] was 7300 ± 740 nM.

Compound `CC[C@H](C)[C@@H]1NC(=O)[C@H](CC(N)=O)NC(=O)[C@@H](N)CC(=O)NCCCC[C@@H](C(N)=O)NC(=O)[C@H](Cc2c[nH]c3ccccc23)NC(=O)[C@@H]2C[C@H](n3cc(Cc4ccc(I)cc4)nn3)CN2C1=O` [cPT 33] (H-DNI[X5]WK-NH2; lactam 1-6) has an IC50 [1] of about 6000 nM and an IC50 [2] of 6000 ± 450 nM.

Compound `CC[C@H](C)[C@@H]1NC(=O)[C@H](CC(N)=O)NC(=O)[C@@H](N)CC(=O)NCCCC[C@@H](C(N)=O)NC(=O)[C@H](Cc2c[nH]c3ccccc23)NC(=O)[C@@H]2C[C@H](n3cc(C4C5CC6CC(C5)CC4C6)nn3)CN2C1=O` (stereo partly shown) [compound 18] (H-DNI[X4]WK-NH2; lactam 1-6) has an IC50 [1] of about 1300 nM and an IC50 [2] of 1400 ± 200 nM.

Compound `CC[C@H](C)[C@@H]1NC(=O)[C@H](CC(N)=O)NC(=O)[C@@H](N)CC(=O)NCCCC[C@@H](C(N)=O)NC(=O)[C@H](Cc2c[nH]c3ccccc23)NC(=O)[C@@H]2C[C@H](n3cc(Cc4ccccc4)nn3)CN2C1=O` [compound 19] (H-DNI[X14]WK-NH2; lactam 1-6) has an IC50 [1] of about 438 nM and an IC50 [2] of 438 ± 12 nM.

Compound `CCc1ccc(-c2cn([C@H]3C[C@H]4C(=O)N[C@@H](Cc5c[nH]c6ccccc56)C(=O)N[C@H](C(N)=O)CCCCNC(=O)C[C@H](N)C(=O)N[C@@H](CC(N)=O)C(=O)N[C@@H]([C@@H](C)CC)C(=O)N4C3)nn2)cc1` [compound 20] (H-DNI[X9]WK-NH2; lactam 1-6) has an IC50 [1] of about 1200 nM and an IC50 [2] of 1200 ± 500 nM.

`CC[C@H](C)[C@@H]1NC(=O)[C@H](CC(N)=O)NC(=O)[C@@H](N)CC(=O)NCCCC[C@@H](C(N)=O)NC(=O)[C@H](Cc2c[nH]c3ccccc23)NC(=O)[C@@H]2C[C@H](n3cc(-c4ccc(C(C)C)cc4)nn3)CN2C1=O` [compound 21] (H-DNI[X16]WK-NH2; lactam 1-6) showed an IC50 [1] of about 900 nM and an IC50 [2] of 900 ± 45 nM.

Compound `CC[C@H](C)[C@@H]1NC(=O)[C@H](CC(N)=O)NC(=O)[C@@H](N)CC(=O)NCCCC[C@@H](C(N)=O)NC(=O)[C@H](Cc2c[nH]c3ccccc23)NC(=O)[C@@H]2C[C@H](n3cc(-c4ccc(C(C)(C)C)cc4)nn3)CN2C1=O` [compound 22] (H-DNI[X15]WK-NH2; lactam 1-6) has an IC50 [1] of about 350 nM and an IC50 [2] of 350 ± 25 nM.

With `CC[C@H](C)[C@@H]1NC(=O)[C@H](CC(N)=O)NC(=O)[C@@H](N)CC(=O)NCCCC[C@@H](C(N)=O)NC(=O)[C@H](Cc2c[nH]c3ccccc23)NC(=O)[C@@H]2C[C@H](n3cc(-c4ccc(-c5ccccc5)cc4)nn3)CN2C1=O` [compound 23] (H-DNI[X18]WK-NH2; lactam 1-6) the IC50 [1] was 269 nM.

With `CC[C@H](C)[C@@H]1NC(=O)[C@H](CC(N)=O)NC(=O)[C@@H](N)CC(=O)NCCCC[C@@H](C(N)=O)NC(=O)[C@H](Cc2c[nH]c3ccccc23)NC(=O)[C@@H]2C[C@H](n3cc(-c4cc5ccccc5cn4)nn3)CN2C1=O` [compound 30] (H-DNI[X13]WK-NH2; lactam 1-6) the IC50 [1] was about 5000 nM and the IC50 [2] was 5000 ± 850 nM.

Compound `CC[C@H](C)[C@@H]1NC(=O)[C@H](CC(N)=O)NC(=O)[C@@H](N)CC(=O)NCCCC[C@@H](C(N)=O)NC(=O)[C@H](Cc2c[nH]c3ccccc23)NC(=O)[C@@H]2C[C@H](n3cc(Cc4ccc(Cl)cc4)nn3)CN2C1=O` [compound 31] (H-DNI[X8]WK-NH2; lactam 1-6) has an IC50 [1] of about 1800 nM and an IC50 [2] of 1800 ± 500 nM.

In the case of `CC[C@H](C)[C@@H]1NC(=O)[C@H](CC(N)=O)NC(=O)CCC(=O)NCCCC[C@@H](C(N)=O)NC(=O)[C@H](Cc2c[nH]c3ccccc23)NC(=O)[C@@H]2C[C@H](n3cc(-c4ccc(-c5cccs5)cc4)nn3)CN2C1=O` [compound 38] (NI[X1]WK-NH2; linker N-5 via Suc), the “fold decrease in potency compared to 36” value (infection inhibition) is reported as “about 8 fold” and the IC50 [1] is reported as ~882 nM and 882 nM.
